Assay results: patent publication US20080241177A1 (priority 2003, published 2008)
Entries after “also recorded” stand apart in the source; their conditions may differ.

Columns and labels:
PBMCs = experiment: (3H)-thymidine proliferation assay; assay type: cell-based, human; conditions: patient 016, visit 5 (1 month after vaccination 4); 10 μg/ml peptide
Experimental: FIG. 4. Cell-mediated response to peptide 5 in trial subject 016, measured over the course of the vaccination schedule. Patient PBMCs were stimulated with 10 μg/ml peptide 5, incubated in vitro for 6 days, pulsed with ^3H-thymidine for 18 hours and then proliferation was assessed by ^3H-thymidine incorporation.
Peripheral blood mononuclear cells (PBMCs) were plated at a concentration of 1×10^5 cells/well for thymidine proliferation and ELISpot assays and at 1×10^6 cells/well (24 well plates) for the CFSE proliferation assay. ELISpot plates were coated with mouse anti-human IFN-γ antibody (Diaclone, France) and cells for CFSE assay were stained with 5 μM CFSE-FITC (Molecular Probes, Eugene, Oreg.). All PBMCs were in RPMI supplemented with 2 mM L-glutamine, 10 mM HEPES, 100 U/mL penicillin/streptomycin and 10% human AB serum (Australian Red Cross Blood Service).
The recall antigens CMV lysate, (1/2000 dilution; BioWhittaker, Walkersville, Md.) and tetanus toxoid (2.5 Lfu/ml; CSL) were also tested. PBMCs were incubated at 37° C. and 5% CO2 atmosphere for 20 hours (ELISpot) or 6 days (proliferation assays).
In the thymidine proliferation assay, cells were pulsed with 0.5 μCi/well [methyl-^3H]-thymidine (Amersham, Buckinghamshire, UK) and harvested 18 hours later. [^3H]-thymidine incorporation was measured by liquid scintillation counting. A sample was considered to be positive when the stimulation index^22 for each well in the quadruplicate sample exceeded the mean of unstimulated cells by at least three standard deviations.

serum antibodies [1] = experiment: ELISA for serum antibodies specific for the individual vaccine peptides, human sera; conditions: for Number of individuals with a humoral response to the vaccine peptides, Cancer controls n = 54: non-trial cancer controls, sera 1:25 dilution; for Number of individuals with a humoral response to the vaccine peptides, Normal controls n = 30 / Percent of individuals with a humoral response to the vaccine peptides, Normal controls n = 30: n = 30, not vaccinated
serum antibodies [2] = experiment: Immunization of sheep with the vaccine, anti-peptide ELISA; conditions: for Response to peptide using the polyclonal sheep sera or rabbit sera: polyclonal sheep sera (FIG. 2A) or rabbit sera (data not shown); for Polyclonal sera with reactivity to peptide obtained from immunized sheep: 200 μg peptide mixture in CpG DNA adjuvant, prime and boost; for Response higher in the first immunized sheep, on average: first versus second sheep
[3] = Delayed type hypersensitivity (DTH) testing; assay type: in vivo, human; conditions: for Induration area, DTH testing: 48 hours following intradermal injection of individual peptide, after four vaccinations; for Number of patients with a peptide-specific DTH response: six trial patients who underwent DTH testing
Experimental: Delayed type hypersensitivity (DTH) testing was carried out 1 month after the final vaccination. […] Induration of […]10 mm^2 at 48 hours after injection was considered positive.

[4] = trial subjects who completed four vaccinations, n = 6, detectable response at any time point considered positive

Substance: H-LEWMGIINPSGGSANYAPKFKGRLTMS-OH [Peptide 1, Heavy CDR2 of human anti-p53 antibody with N-terminus specificity]
- stimulation index (PBMCs): 10.4
- Number of individuals with a humoral response to the vaccine peptides, Cancer controls n = 54 (serum antibodies [1]): 0
- Number of individuals with a humoral response to the vaccine peptides, Normal controls n = 30 (serum antibodies [1]): 3
- Percent of individuals with a humoral response to the vaccine peptides, Normal controls n = 30 (serum antibodies [1]): 10%
- Number of individuals with a humoral response to the vaccine peptides, Trial subjects n = 6 (serum antibodies [1]; [4]): 0
- Number of individuals with a humoral response to the vaccine peptides, Trial subjects n = 6 (serum antibodies [1]; trial subjects who completed four vaccinations, n = 6, detectable response at any time point considered positive, listed as peptide 1): No patient demonstrated a response
- Response to peptide using the polyclonal sheep sera or rabbit sera (serum antibodies [2]): positive responses
- Polyclonal sera with reactivity to peptide obtained from immunized sheep (serum antibodies [2]; two sheep): one animal did not respond
- Induration area, DTH testing ([3]; patient 012): Neg (Neg indicates that induration (if any) was less than 10 mm^2)
- Induration area, DTH testing ([3]; patient 014): Neg (Neg indicates that induration (if any) was less than 10 mm^2)
- Induration area, DTH testing ([3]; patient 015): Neg (Neg indicates that induration (if any) was less than 10 mm^2)
- Induration area, DTH testing ([3]; patient 016): 104 mm^2
- Induration area, DTH testing ([3]; patient 017): 24 mm^2
- Induration area, DTH testing ([3]; patient 018): Neg (Neg indicates that induration (if any) was less than 10 mm^2)
- Number of patients with a peptide-specific DTH response [3]: two

Substance: H-YFCSRVKAGGPDYWGQGT-OH [Peptide 6, Heavy CDR3 of human anti-p53 antibody with central domain specificity]
- Number of individuals with a humoral response to the vaccine peptides, Cancer controls n = 54 (serum antibodies [1]): 0
- Number of individuals with a humoral response to the vaccine peptides, Normal controls n = 30 (serum antibodies [1]): 0
- Number of individuals with a humoral response to the vaccine peptides, Trial subjects n = 6 (serum antibodies [1]; [4]): 0
- Number of individuals with a humoral response to the vaccine peptides, Trial subjects n = 6 (serum antibodies [1]; trial subjects who completed four vaccinations, n = 6, detectable response at any time point considered positive, listed as peptide 6): No patient demonstrated a response
- Response higher in the first immunized sheep, on average (serum antibodies [2]): 50%
- Response to peptide using the polyclonal sheep sera or rabbit sera (serum antibodies [2]): positive responses
- Polyclonal sera with reactivity to peptide obtained from immunized sheep (serum antibodies [2]; two sheep): obtained from both sheep
- Number of patients with a peptide-specific DTH response [3]: responses were observed in at least one individual for all of the peptides, except for peptides 3 and 6

Substance: H-GVYYCMQGLQTPYTFGEGT -OH (H-GVYYCMQGLQTPYTFGEGT-OH) [Peptide 8, Light CDR3 of human anti-p53 antibody with central domain specificity]
- Number of individuals with a humoral response to the vaccine peptides, Cancer controls n = 54 (serum antibodies [1]): 0
- Number of individuals with a humoral response to the vaccine peptides, Normal controls n = 30 (serum antibodies [1]): 0
- Isotype of peptide-specific serum antibodies (serum antibodies [1]; subject 012): undetectable
- Isotype of peptide-specific serum antibodies (serum antibodies [1]; subject 015): undetectable
- Number of individuals with a humoral response to the vaccine peptides, Trial subjects n = 6 (serum antibodies [1]; [4]): 2
- Percent of individuals with a humoral response to the vaccine peptides, Trial subjects n = 6 (serum antibodies [1]; [4]): 33.3%
- Number of individuals with a humoral response to the vaccine peptides, Trial subjects n = 6 (serum antibodies [1]; trial subjects who completed four vaccinations, n = 6, detectable response at any time point considered positive, listed as peptide 8): two
- Serum antibody titres, first versus second immunized sheep (serum antibodies [2]; two sheep): equivalent
- Polyclonal sera with reactivity to peptide obtained from immunized sheep (serum antibodies [2]; two sheep): obtained from both sheep
- Induration area, DTH testing ([3]; patient 012): 113 mm^2
- Induration area, DTH testing ([3]; patient 014): Neg (Neg indicates that induration (if any) was less than 10 mm^2)
- Induration area, DTH testing ([3]; patient 015): 38 mm^2
- Induration area, DTH testing ([3]; patient 016): Neg (Neg indicates that induration (if any) was less than 10 mm^2)
- Induration area, DTH testing ([3]; patient 017): 44 mm^2
- Induration area, DTH testing ([3]; patient 018): Neg (Neg indicates that induration (if any) was less than 10 mm^2)
- Number of patients with a peptide-specific DTH response [3]: three

Substance: H-KLLIHWASTRESGVPDR-OH [Peptide 3, Light CDR2 of human anti-p53 antibody with N-terminus specificity]
- Number of individuals with a humoral response to the vaccine peptides, Cancer controls n = 54 (serum antibodies [1]): 0
- Number of individuals with a humoral response to the vaccine peptides, Normal controls n = 30 (serum antibodies [1]): 1
- Percent of individuals with a humoral response to the vaccine peptides, Normal controls n = 30 (serum antibodies [1]): 3.3%
- Number of individuals with a humoral response to the vaccine peptides, Trial subjects n = 6 (serum antibodies [1]; [4]): 0
- Number of individuals with a humoral response to the vaccine peptides, Trial subjects n = 6 (serum antibodies [1]; trial subjects who completed four vaccinations, n = 6, detectable response at any time point considered positive, listed as peptide 3): No patient demonstrated a response
- Response to peptide using the polyclonal sheep sera or rabbit sera (serum antibodies [2]): positive responses
- Polyclonal sera with reactivity to peptide obtained from immunized sheep (serum antibodies [2]; two sheep): neither animal; also recorded: could not be generated
- Number of patients with a peptide-specific DTH response [3]: responses were observed in at least one individual for all of the peptides, except for peptides 3 and 6

Substance: H-AGLFCQQYYTTPLTFGGGT-OH [Peptide 4, Light CDR3 of human anti-p53 antibody with N-terminus specificity]
- Number of individuals with a humoral response to the vaccine peptides, Cancer controls n = 54 (serum antibodies [1]): 0
- Number of individuals with a humoral response to the vaccine peptides, Normal controls n = 30 (serum antibodies [1]): 0
- Number of individuals with a humoral response to the vaccine peptides, Trial subjects n = 6 (serum antibodies [1]; [4]): 0
- Number of individuals with a humoral response to the vaccine peptides, Trial subjects n = 6 (serum antibodies [1]; trial subjects who completed four vaccinations, n = 6, detectable response at any time point considered positive, listed as peptide 4): No patient demonstrated a response
- Response higher in the first immunized sheep, on average (serum antibodies [2]): 50%
- Response to peptide using the polyclonal sheep sera or rabbit sera (serum antibodies [2]): positive responses
- Polyclonal sera with reactivity to peptide obtained from immunized sheep (serum antibodies [2]; two sheep): obtained from both sheep
- Induration area, DTH testing ([3]; patient 012): Neg (Neg indicates that induration (if any) was less than 10 mm^2)
- Induration area, DTH testing ([3]; patient 014): Neg (Neg indicates that induration (if any) was less than 10 mm^2)
- Induration area, DTH testing ([3]; patient 015): 13 mm^2
- Induration area, DTH testing ([3]; patient 016): Neg (Neg indicates that induration (if any) was less than 10 mm^2)
- Induration area, DTH testing ([3]; patient 017): Neg (Neg indicates that induration (if any) was less than 10 mm^2)
- Induration area, DTH testing ([3]; patient 018): Neg (Neg indicates that induration (if any) was less than 10 mm^2)
- Number of patients with a peptide-specific DTH response [3]: one
